Experimental findings from PMC3075257, “Evaluation of Multidrug Efflux Pump Inhibitors by a New Method Using Microfluidic Channels” (PLoS ONE, 2011) are described below.

Holding throughout (format): cell-based
One assay has as its target T1, AcrAB-TolC (Escherichia coli, UniProt P31224).
T1 construct: gene acrB; native chromosomal pump in intact cells, judged against ΔacrB and ΔtolC deletion mutants; with Multidrug efflux pump subunit AcrA; Outer membrane protein TolC
Put plainly: FDG influx and hydrolysis in wild-type against ΔacrB cells, microfluidic channel fluorescence microscopy. Particulars: 100 µg/ml FDG, LB, lactose-induced β-galactosidase, 15 min, 37°C.

The next assay addresses T2, MexAB-OprM (Pseudomonas aeruginosa, UniProt P52002).
T2 construct: gene mexB; full-length tripartite RND efflux pump from plasmid pMMB67HE::mexAB-oprM in E. coli MG1655 ΔacrBΔtolC, IPTG-induced; with Multidrug resistance protein MexA; Outer membrane protein OprM
The experiment in a line: fluorescein efflux from E. coli cells loaded with FDG, microfluidic channel fluorescence microscopy. Particulars: ΔBC/pABM against vector control ΔBC/pV, 100 µg/ml FDG, LB, 15 min, 37°C; exported dye formed in the cell from FDG.

The target of the next assay is T3, MexXY-OprM (Pseudomonas aeruginosa, UniProt G3XCW2).
T3 construct: gene mexY; full-length tripartite RND efflux pump from plasmid pMMB67HE::mexXY-oprM in E. coli MG1655 ΔacrBΔtolC, IPTG-induced; with Multidrug efflux RND transporter periplasmic adaptor subunit MexX; Outer membrane protein OprM
T3 sequence (G3XCW2 entry or part of it): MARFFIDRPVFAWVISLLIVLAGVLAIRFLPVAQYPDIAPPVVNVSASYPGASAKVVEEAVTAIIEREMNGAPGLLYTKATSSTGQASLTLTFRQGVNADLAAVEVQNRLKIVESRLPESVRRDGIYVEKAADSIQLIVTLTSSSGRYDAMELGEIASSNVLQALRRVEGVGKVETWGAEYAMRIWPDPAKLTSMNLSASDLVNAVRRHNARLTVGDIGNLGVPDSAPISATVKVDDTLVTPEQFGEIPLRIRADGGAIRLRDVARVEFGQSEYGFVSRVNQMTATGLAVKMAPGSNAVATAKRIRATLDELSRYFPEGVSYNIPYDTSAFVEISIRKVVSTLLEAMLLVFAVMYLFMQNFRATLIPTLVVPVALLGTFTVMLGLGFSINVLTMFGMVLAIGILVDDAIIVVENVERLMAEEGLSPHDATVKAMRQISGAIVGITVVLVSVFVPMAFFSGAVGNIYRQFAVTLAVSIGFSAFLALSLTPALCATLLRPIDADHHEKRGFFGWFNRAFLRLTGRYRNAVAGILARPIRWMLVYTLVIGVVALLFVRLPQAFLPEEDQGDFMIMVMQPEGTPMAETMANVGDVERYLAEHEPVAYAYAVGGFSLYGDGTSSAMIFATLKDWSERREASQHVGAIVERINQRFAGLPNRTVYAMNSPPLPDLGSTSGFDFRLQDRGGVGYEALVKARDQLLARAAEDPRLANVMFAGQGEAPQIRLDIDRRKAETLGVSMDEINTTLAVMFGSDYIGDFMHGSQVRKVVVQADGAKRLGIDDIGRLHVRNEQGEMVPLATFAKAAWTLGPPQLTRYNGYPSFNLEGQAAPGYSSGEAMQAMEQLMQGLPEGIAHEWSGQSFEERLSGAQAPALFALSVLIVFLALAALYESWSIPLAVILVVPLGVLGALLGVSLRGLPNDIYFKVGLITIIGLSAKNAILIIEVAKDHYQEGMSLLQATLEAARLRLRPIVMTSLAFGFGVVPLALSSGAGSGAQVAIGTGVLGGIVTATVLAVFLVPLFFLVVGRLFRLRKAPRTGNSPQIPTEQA
T3 sequence (G3XD21 entry or part of it, further chain): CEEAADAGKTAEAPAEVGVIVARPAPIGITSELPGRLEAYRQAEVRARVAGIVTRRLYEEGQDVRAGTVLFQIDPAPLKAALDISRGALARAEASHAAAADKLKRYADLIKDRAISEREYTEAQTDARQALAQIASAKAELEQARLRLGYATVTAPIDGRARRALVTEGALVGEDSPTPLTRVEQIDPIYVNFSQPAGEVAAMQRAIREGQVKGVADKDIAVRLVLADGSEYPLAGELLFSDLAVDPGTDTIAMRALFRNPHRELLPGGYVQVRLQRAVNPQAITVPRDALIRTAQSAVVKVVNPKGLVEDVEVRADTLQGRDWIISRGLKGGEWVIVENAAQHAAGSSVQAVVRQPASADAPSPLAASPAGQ
T3 sequence (Q51487 18-485, further chain): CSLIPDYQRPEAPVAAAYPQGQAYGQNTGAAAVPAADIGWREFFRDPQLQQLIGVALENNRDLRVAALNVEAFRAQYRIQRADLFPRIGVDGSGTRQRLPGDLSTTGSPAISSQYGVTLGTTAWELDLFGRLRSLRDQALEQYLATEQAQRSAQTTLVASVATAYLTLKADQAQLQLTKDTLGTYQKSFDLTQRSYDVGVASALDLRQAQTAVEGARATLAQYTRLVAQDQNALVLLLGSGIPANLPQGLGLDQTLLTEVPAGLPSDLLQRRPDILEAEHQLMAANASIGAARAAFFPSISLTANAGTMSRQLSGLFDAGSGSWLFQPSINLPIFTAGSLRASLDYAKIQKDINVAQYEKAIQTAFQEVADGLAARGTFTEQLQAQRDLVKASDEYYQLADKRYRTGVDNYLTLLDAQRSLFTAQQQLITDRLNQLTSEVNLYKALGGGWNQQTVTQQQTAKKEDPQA
The description is as above. Particulars: ΔBC/pXYM against vector control ΔBC/pV, 100 µg/ml FDG, LB, 15 min, 37°C; exported dye formed in the cell from FDG.

T2 sequence (Q51487 18-485): as the sequence (Q51487 18-485, further chain) above
T2 sequence (P52477 24-383, further chain): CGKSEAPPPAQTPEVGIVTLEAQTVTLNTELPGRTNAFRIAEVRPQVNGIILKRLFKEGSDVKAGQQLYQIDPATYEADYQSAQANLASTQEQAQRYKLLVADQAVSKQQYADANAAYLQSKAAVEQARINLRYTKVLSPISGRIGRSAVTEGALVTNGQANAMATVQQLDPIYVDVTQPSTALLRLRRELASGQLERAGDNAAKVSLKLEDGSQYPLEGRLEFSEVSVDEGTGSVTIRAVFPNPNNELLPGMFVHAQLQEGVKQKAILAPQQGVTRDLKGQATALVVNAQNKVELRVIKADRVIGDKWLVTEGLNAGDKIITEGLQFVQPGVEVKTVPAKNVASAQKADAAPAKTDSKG
T2 sequence (P52002 whole entry): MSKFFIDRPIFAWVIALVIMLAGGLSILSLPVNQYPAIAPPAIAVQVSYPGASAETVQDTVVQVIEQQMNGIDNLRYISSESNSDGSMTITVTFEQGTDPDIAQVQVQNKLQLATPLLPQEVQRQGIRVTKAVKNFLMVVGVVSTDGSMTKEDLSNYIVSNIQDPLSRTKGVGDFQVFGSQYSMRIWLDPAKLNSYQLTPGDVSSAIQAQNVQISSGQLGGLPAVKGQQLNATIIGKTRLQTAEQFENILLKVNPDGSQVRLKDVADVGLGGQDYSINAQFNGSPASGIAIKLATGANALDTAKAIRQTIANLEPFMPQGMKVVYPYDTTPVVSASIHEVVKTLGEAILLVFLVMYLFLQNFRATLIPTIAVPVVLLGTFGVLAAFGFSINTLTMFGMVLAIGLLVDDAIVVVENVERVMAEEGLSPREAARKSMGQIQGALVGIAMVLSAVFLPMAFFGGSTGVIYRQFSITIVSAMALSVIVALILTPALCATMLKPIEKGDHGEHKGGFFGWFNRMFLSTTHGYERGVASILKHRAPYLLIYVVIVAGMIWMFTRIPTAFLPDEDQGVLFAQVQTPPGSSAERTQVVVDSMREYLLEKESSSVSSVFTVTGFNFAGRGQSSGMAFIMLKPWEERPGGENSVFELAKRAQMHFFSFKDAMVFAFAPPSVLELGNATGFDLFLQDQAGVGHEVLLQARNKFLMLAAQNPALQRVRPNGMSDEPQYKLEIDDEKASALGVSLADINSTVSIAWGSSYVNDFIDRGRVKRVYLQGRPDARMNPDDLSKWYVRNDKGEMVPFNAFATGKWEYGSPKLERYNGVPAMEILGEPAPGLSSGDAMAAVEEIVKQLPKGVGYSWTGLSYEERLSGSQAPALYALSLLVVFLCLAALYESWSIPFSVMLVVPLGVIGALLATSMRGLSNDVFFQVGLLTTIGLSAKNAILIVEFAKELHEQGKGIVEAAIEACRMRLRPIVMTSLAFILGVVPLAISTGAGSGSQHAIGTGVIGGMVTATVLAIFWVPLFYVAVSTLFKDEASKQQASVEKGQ

For the compound `O=C1OC2(c3ccc(O[C@@H]4O[C@H](CO)[C@H](O)[C@H](O)[C@H]4O)cc3Oc3cc(O[C@@H]4O[C@H](CO)[C@H](O)[C@H](O)[C@H]4O)ccc32)c2ccccc21` [Fluorescein-di-β-D-galactopyranoside], the “FDG influx and hydrolysis in wild-type against ΔacrB cells, microfluidic channel” value on AcrAB-TolC was “AcrAB-TolC and the analogous RND pumps effectively prevented FDG influx in E. coli wild-type cells”.
For the compound `O=C1OC2(c3ccc(O)cc3Oc3cc(O)ccc32)c2ccccc21` [fluorescein], the “fluorescein efflux from E. coli cells loaded with FDG, microfluidic channel fluo” value on MexAB-OprM and on MexXY-OprM was “The fluorescent medium was observed in ΔBC carrying pABM or pXYM” in each case.
